The text below walks through data of US20240316023A1, “BENEDIN, PIPERIDINE, 2-BENZHYDRYL-3-HYDROXY-N-METHYL-, HYDROCHLORIDE AND DERIVATIVES THEREOF FOR USE IN TREATING KLEINE-LEVIN SYNDROME” (priority 2021, published 2024).

For assay [1], the system named is patients with frequent episodes of KLS. The settings on record: compared to rest of stimulants; cited from earlier work.
For a further assay, the system named is Mice, C57BL/6J, male. The assay can be described thus: Novel object recognition (NOR) test, long-term memory. The assay is classed as in vivo. The note with it: donepezil 2 mg/kg i.p.; 3-days interval. On the procedure:
Long-term episodic memory was tested in the NOR test, using a 3-days interval between the acquisition session (called sample trial) and the retention session (called choice trial). This method allows to detect an improvement of memory in the natural forgetting condition:
The test was carried out in circular boxes (30 cm diameter, 40 cm high). The objects to be discriminated (L≈1≈h≈3-4 cm) differed in both color and shape and were referred as yellow duck and blue lego. They were fixed with a magnet to the floor of the boxes at 5 cm of the wall, 20 cm distant. Apparently, they have no natural significance for mice and they have never been associated with a reinforcement. In order to rule out the possibility of scent traces left on the objects and therefore the dependency of the recognition capacity of mice on the olfactory cue, the objects and the ground of the box were washed with an odorless disinfectant (Sanicid® diluted in water) and dried between each trial. A camcorder was fixed to the ceiling above the box to record the animals' activity. The experiment was analyzed blindly at a later time.
On the week before the test, animals were handled by the experimenter in charge of the experiment in order to be not stressed at the time of testing. For this purpose, the experimenter placed a small amount of litter, and then the mouse on its hand. […] The NOR test was completed over five days (see FIG. 1): • Day 1: Habituation trial. Animals were individually placed for a 15-min free exploration session in empty open boxes. • Day 2. Treatment administration and sample trial. […] They were individually placed 30 min after in the apparatus for a 6-min session with two identical objects (Duck, 50% of animals or Lego, 50% of animals). • […]. […]. The mice were individually placed for a 6-min session in the apparatus with two objects (Duck and Lego), one of the objects presented in sample trials (termed as familiar objects) and a novel object (Lego, 50% of animals or Duck, 50% of animals).
The sample and choice trials were recorded with the camera located above the apparatus. The time spent by mice in exploring the objects was measured during the sample trial and the choice trial.
Exploration of an object was defined as follows: directing the nose to the object at a distance≤2 cm and/or touching it with the nose or forelimbs: turning around or biting the object, or sitting on the object were not considered as exploratory behavior.
Data recorded: • L=exploration time of the left object in the sample trial. • R=exploration time of the right object in the sample trial. • N=exploration time of the new object in the choice trial. • F=exploration time of the familiar object in the choice trial. Object recognition task indices include the following parameters: • Exploration indices: • ST=L+R=exploration time (left object+right object) in the sample trial. • CT=N+F=exploration time (new object+familiar object) in the choice trial. • Two memory indices: • N−F=difference of exploration time between the new object and the familiar object in the choice trial.
Statistical analyses: • Read-outs: DI, N−F, ST, CT, N, F • Unpaired Student's t test: Donep 2 group vs. Control group. • One-way ANOVA, Dunnett test: • Benedin groups vs. Control group. • Benedin groups vs. Donep 2 group. • Read-outs: DI and N−F, for all groups, paired Student's t test, difference vs. 0. • Body weight: one-way ANOVA.

Consider `NC12CC3CC(CC(C3)C1)C2` [Amantadine], for which, in assay [1], the “response (reducing the number of episodes)” value is 41%.
Regarding “Donepezil hydrochloride [reference compound]”, in the assay with Mice, C57BL/6J, male, the “recognition of the familiar object, i.e. memory” value is on record as “improved the recognition of the familiar object”.
